Data from patent US20230233513A1, “TAXIFOLIN FORMULATION COMPRISING THIAMINE” (Evanium Healthcare GmbH, priority 2020, published 2023).

Experiments:
[1] = Screening of water-soluble polymers / alkylammonium cations: recrystallization of supersaturated taxifolin/β-CD complex solution; type: physicochemical; conditions: taxifolin:choline/carnitine cations ratio 1:0.85, 96 h
Procedure: In order to examine which water-soluble polymers are particularly suitable for improving the stability and dissolution capacity of flavonoid-cyclodextrin complexes, a screening was carried out. For this purpose, first, a supersaturated taxifolin/β-CD complex solution was prepared by adding an excess of equimolar taxifolin/β-CD complex and subsequent heating to 35° C. and filtering off.

[2] = Stability examination taxifolin: color change of aqueous solutions; type: physicochemical; conditions: stored open, protected from light, room temperature
Procedure: In order to investigate the stability of the flavonoid taxifolin and the influence of thiamine and β-CD, experiments were also carried out in this regard. Since taxifolin forms red-brown oligomers upon breakdown, the detection is quite straightforward to carry out. Method: Three aqueous solutions were prepared in beakers containing I) 100 mg taxifolin in 150 ml distilled water II) 100 mg of Taxifolin+13 mg of thiamine HCl in 150 ml distilled water and III) 100 mg taxifolin+13 mg of thiamine HCl+373 mg of β-CD in distilled water. Samples were stored open and protected from light at room temperature and the color of the solution was checked every 24 h.

Compound	Recrystallization after 96 h [1]	Remark (change versus reference solution) [1]	Time of color change ([2]; aqueous solution)	Color of solution [2]
C[N+](C)(C)C[C@H](O)CC(=O)[O-].O=C(O)C(O)C(O)C(=O)O [L-Carnitine tartrate, L-carnitine tartrate]	Distinct	No change		
O=C1c2c(O)cc(O)cc2O[C@H](c2ccc(O)c(O)c2)[C@H]1O [Taxifolin reference, taxifolin]			48 h	Red-brown
